Laboratory results: PMC7034072, “Discovery of small molecule inhibitors of Leishmania braziliensis Hsp90 chaperone” (Journal of Enzyme Inhibition and Medicinal Chemistry, 2020)
Where two headings read alike, the source gives them in different places.

What was measured:
[1] = system: LbHsp90 and LbHsp90N recombinant proteins; assay: Differential scanning fluorimetry (thermal shift assay); assay type: binding, L. braziliensis; details: DSF; for Thermal shift: inclusion criterion Tm variation greater or equal to ± 2 °C in LbHsp90 or LbHsp90N, Yes/No
Method: The interaction of Hsp90 proteins with different compounds was monitored through the melting temperature (Tm) of each protein in the presence of a fixed concentration of the target compound by differential scanning fluorimetry (DSF) also referred as thermal shift assay. A final concentration of 10 µM of dimeric LbHsp90 and 20 µM of monomeric LbHsp90N in 40 mM Hepes buffer (pH 7.5) containing 100 mM KCl were used. The DMSO concentration in each sample was fixed at 2.5% (v/v). Prior to the readings, the samples were incubated for 30 min on ice. The fluorophore Sypro Orange (Life Technologies) was used as fluorescent probe. The experiments were performed at a thermocycler CFX96 Touch Real Time PCR Detection System (BioRad) and the data were analysed using the CFX Manager software (BioRad). As positive controls, 100 µM of GA and Radicicol (RDC) were used.

[2] = system: promastigote form of L. braziliensis; assay: Cell viability assay (MTT/PMS), single concentration; assay type: cell-based; details: L. braziliensis promastigotes, 200 μM/well; for Cell viability: 72 h, MTT/PMS, Yes = leishmanicidal activity; for reduced cell viability: after 72 h
Method: The leishmanicidal activity of the compounds was tested in vitro against the promastigote form of L. braziliensis applying 200 μM/well, (with a total of 0.5% DMSO) into 90 μL of culture. The concentration of L. braziliensis (MHOM/BR/1973/M2269) was adjusted to 10^7 cells/mL. Amphotericin (100 μM/well) was used as positive control, and 0.5% DMSO as negative control.
The plates were incubated at room temperature (RT) for 72 h. After this period, the viability of the promastigotes was verified via MTT (3–(4, 5-Dimethylthiazol-2-yl)-2, 5-Diphenyltetrazolium Bromide) colorimetric assay. MTT/PMS 11.1 μL/well solution (MTT = 5 mg/mL; Phenazine methosulfate-PMS = 0.22 mg/mL) was added, and the plate was incubated at RT for 4 h, at 150 RPM, protected from light. Formazan crystals were then solubilised by adding 100 μL/well of a solubilisation solution containing 7% SDS, 10 mM HCl and 30% DMSO. The mixture was incubated at RT for 90 min at 150 RPM protected from light. Wells containing the medium and the compounds or DMSO without MTT were used as blank controls. The absorbance was quantified in a plate reader (Biotek Synergy HT) at 570 nm.
The cell viability percentages were calculated by the following equation: (1) Cell viability %= AT−AB/AU−AB ×100 where AT was an averaged absorbance from treated samples, AB blank absorbance and AU was an averaged absorbance from negative control.

LbHsp90 [3] = biological target: T1, LbHsp90 (Leishmania braziliensis, UniProt A4HL70); assay: ATPase activity inhibition assay (EnzChek Pi quantification); assay type: biochemical
T1 sequence (A4HL70 entry or part of it): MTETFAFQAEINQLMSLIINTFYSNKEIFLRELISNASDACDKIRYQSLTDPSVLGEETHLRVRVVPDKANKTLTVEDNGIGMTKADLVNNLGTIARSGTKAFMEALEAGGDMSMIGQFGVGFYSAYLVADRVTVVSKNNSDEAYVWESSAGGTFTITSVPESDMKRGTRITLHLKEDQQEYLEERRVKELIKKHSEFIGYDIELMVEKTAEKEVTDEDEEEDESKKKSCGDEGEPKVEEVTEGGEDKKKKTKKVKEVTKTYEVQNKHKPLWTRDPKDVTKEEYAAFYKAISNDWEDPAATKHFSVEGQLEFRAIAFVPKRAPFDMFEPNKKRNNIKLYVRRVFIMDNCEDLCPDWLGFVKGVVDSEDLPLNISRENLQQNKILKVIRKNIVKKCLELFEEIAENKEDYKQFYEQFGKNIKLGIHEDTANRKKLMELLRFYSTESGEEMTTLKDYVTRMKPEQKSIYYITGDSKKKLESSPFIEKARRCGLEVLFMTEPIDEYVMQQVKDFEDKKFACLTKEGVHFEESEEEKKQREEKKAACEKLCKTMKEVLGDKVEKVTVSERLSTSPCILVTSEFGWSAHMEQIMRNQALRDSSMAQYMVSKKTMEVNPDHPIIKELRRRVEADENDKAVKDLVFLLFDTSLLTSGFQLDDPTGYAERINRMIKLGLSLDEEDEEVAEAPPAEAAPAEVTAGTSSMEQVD
Method: (§1) The ATPase activity of LbHsp90 and hHsp90β was evaluated spectrophotometrically through inorganic phosphate (Pi) quantification following ATP hydrolysis, by the EnzChek™ assay kit (Invitrogen®) as previous described[31]^,[34]. Briefly, a 2 µM solution of LbHsp90 and hHsp90β enzymes was prepared in 150 mM NaCl, 5 mM MgCl2 and 20 mM Tris-HCl, pH 7.5, and incubated with ATP (concentration range 0–5 mM) for 60 min at 37 °C. Then, the chromogenic substrate 2-amino-6-mercapto 7-methyl purine riboside (MESG) and the purine nucleoside phosphorylase (PNP) were added and the resulting reaction mixture was incubated for 30 min at 37 °C. The assays were performed in a 96-well plate and kinetic parameters determined by Michaelis–Menten fitting using GraphPad Prism 6 software.
The inhibitory activity against LbHsp90 and hHsp90β of compounds showing interaction in DSF assays (namely Glb08, Glb15, Gl23, Glb25 and Glb27) was determined using spectrophotometric ATPase activity assays as described above. Initial screenings were performed using 50 μM compound concentration in a reaction mixture consisting of 2 μM enzyme and 2.5 mM ATP. After 1 h incubation at 37 °C, MESG and PNP were added. The amount of Pi was estimated after 30 min incubation at 37 °C. GA was used as reference compound, reporting 100% ATPase activity inhibition (at 50 μM). […] A compound concentration ranging from 1 to 75 μM was included in the reaction mixture and Pi quantification performed as previously described (measurements were performed in triplicate). IC50 values were determined by non-linear regression data fitting (using GraphPad Prism 6 software).

hHsp90β [4] = biological target: T2, hHsp90β (Homo sapiens, UniProt P08238); assay: as above; assay type: biochemical; details: 50 μM compound, 2 μM enzyme, 2.5 mM ATP
T2 construct: made in house; host or cells: Escherichia coli BL21(DE3)
T2 sequence (P08238 whole entry): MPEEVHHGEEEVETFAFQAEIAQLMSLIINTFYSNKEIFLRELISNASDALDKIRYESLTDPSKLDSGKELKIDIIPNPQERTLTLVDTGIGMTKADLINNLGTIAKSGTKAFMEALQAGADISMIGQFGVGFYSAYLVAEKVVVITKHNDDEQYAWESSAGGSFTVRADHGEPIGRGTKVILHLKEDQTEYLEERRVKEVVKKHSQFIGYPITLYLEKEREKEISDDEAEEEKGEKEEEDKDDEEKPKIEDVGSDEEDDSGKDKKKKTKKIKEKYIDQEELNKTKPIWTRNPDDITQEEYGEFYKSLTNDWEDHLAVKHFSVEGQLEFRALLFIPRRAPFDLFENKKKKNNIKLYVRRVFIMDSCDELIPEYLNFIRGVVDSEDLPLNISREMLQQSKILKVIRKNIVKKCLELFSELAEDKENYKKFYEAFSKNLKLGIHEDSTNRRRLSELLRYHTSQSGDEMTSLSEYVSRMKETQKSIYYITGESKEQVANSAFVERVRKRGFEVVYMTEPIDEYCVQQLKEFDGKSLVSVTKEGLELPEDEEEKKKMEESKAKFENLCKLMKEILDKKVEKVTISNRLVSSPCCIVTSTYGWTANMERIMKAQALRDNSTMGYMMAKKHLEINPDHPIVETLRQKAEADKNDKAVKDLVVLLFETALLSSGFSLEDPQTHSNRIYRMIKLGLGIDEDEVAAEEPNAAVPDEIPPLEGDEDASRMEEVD
Method: as §1
Initial screenings were performed using 50 μM compound concentration in a reaction mixture consisting of 2 μM enzyme and 2.5 mM ATP. After 1 h incubation at 37 °C, MESG and PNP were added. The amount of Pi was estimated after 30 min incubation at 37 °C. […] A compound concentration ranging from 1 to 75 μM was included in the reaction mixture and Pi quantification performed as previously described (measurements were performed in triplicate). IC50 values were determined by non-linear regression data fitting (using GraphPad Prism 6 software).

LbHsp90 [5] = biological target: T1, LbHsp90; design: method as in PMID 22910377; details: measured by Tryptophan fluorescence quenching ref 31; read-out: KDapp LbHsp90; cited from earlier work
LbHsp90N [6] = biological target: LbHsp90N; design: method as in PMID 22910377; details: measured by Tryptophan fluorescence quenching ref 31; read-out: KDapp LbHsp90N; cited from earlier work
L. amazonensis = system: L. amazonensis; design: method as in PMID 31611575; details: determined against L. amazonensis ref 36; read-out: IC50 (L. braziliensis column); cited from earlier work
[7] = system: promastigote forms of L. braziliensis; assay: In vitro IC50 determination (leishmanicidal activity, MTT/PMS); assay type: cell-based; details: promastigotes, 72 h, RT
Method: Amphotericin 100 μM/well and 0.5% DMSO were used as positive and negative control, respectively. The plates were incubated at RT for 72 h. After this, the viability of the promastigotes was verified by MTT/PMS colorimetric assay, as described above. In vitro leishmanicidal activity, expressed as IC50, was determined using GraphPad Prism 5 software according to the following equation: (2) y= Amin + Amax−Amin/1+10^logIC50 −x*Hillslope where Amin and Amax are, respectively, the minimum and maximum activities obtained, x is the ligand concentration and Hill Slope is the parameter that describes the steepness of the curve.
The selectivity index parameter was obtained by the ratio of compound IC50 against mammalian cells and compound IC50 against promastigote cells.

[8] = system: Balb-c 3T3 clone A31 mouse fibroblasts; assay: Cytotoxic assay (MTT); assay type: cell-based; details: Balb-c 3T3 mouse fibroblasts, 72 h, 37 °C
Method: Compounds cytotoxicity was evaluated in 100 μL of Balb-c 3T3 cone A31 mouse fibroblasts (10^5 cells/mL) into a 96-well plate, incubated for 24 h at 37 °C to become adhered. After this period, the medium was washed and 100 μL of each compound was added to the culture medium (concentration ranging from 1 to 200 μM/well, with a total of 0.5% DMSO) in quadruplicate. Rapamycin was used as a positive control, and 0.5% DMSO was used as negative control. The plates were incubated for 72 h at 37 °C. After this, the viability of Balb-c 3T3 cells was evaluated by MTT colorimetric assay, as described previously.

LbHsp90 [9] = biological target: T1, LbHsp90; assay: Tryptophan fluorescence quenching interaction assay; assay type: binding; details: full-length, tryptophan fluorescence quenching; read-out: KDapp LbHsp90
Method: (§2) Two µM of protein in 40 mM Hepes buffer (pH 7.5), 100 mM KCl, was incubated for 30 min on ice with increasing concentrations of the compounds diluted in DMSO. […] The samples were excited at 280 nm and the emission was collected in the 300–400 nm range, in a 1.0 × 0.2 cm optical path cuvette, on an F-4500 Fluorescence Spectrophotometer (Hitachi). The fluorescence quenching was analysed at the maximum emission wavelength in the absence of ligand. The determination of the apparent dissociation constant (KDapp) was performed by fitting the fluorescence values obtained for each compound concentration according to a dose-response model through the Equation (3): (3) y = Fmin + (Fmax−Fmin)/(1+10^(logKD− [ligand])) where Fmin and Fmax are the minimum and maximum fluorescence intensity and [ligand] is the compound concentration used in the assay, according to the GraphPad Prism 5 software. The fluorescence intensities were corrected by inner filter effects as previously described.

hHsp90β [10] = biological target: T2, hHsp90β; assay: as above; assay type: binding; details: full-length, tryptophan fluorescence quenching; read-out: KDapp hHsp90β
Method: as §2

hHsp90βN = biological target: T3, hHsp90βN (Homo sapiens, UniProt P08238); assay: as above; assay type: binding; details: N-terminal domain, read-out: KDapp hHsp90βN
T3 construct: N-terminal domain construct (Hsp90βN – residues 1–223); His-tag (cleaved yes); made in house; host or cells: Escherichia coli BL21(DE3)
T3 sequence (P08238 1-223): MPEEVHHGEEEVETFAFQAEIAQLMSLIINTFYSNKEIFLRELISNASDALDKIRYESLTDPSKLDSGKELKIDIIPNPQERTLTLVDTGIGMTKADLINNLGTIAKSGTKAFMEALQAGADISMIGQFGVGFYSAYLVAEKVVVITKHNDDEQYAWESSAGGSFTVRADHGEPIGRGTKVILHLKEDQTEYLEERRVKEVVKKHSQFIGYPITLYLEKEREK
Method: as §2

LbHsp90N [11] = assay: as above; assay type: binding, L. braziliensis; details: N-terminal domain, read-out: KDapp LbHsp90N
Method: as §2

[12] = compound 1 to 75 μM, triplicate, read-out: IC50 LbHsp90 ATPase activity inhibition

SMILES	ΔTm ([1]; 100 µM positive controls, protein stabilisation)	Cell viability [2]	IC50 (LbHsp90 [3])	inhibition at 50 µM (LbHsp90 [3]; read-out: percentage inhibition of LbHsp90 ATPase activity)	percentage inhibition of hHsp90β ATPase activity (hHsp90β [4])	Kd (LbHsp90 [5])	Kd (LbHsp90N [6])	IC50 (L. amazonensis)	Thermal shift [1]	reduced cell viability [2]	IC50 [7]	IC50 [8]	Kd (LbHsp90 [9])	Kd (hHsp90β [10])	Kd (hHsp90βN)	Kd (LbHsp90N [11])	IC50 (LbHsp90 [3]; [12])
COC1=C2C[C@@H](C)C[C@H](OC)[C@H](O)[C@@H](C)/C=C(\C)[C@H](OC(N)=O)[C@@H](OC)/C=C\C=C(/C)C(=O)NC(=CC1=O)C2=O [GA, geldanamycin, reference compound]	> 2.0 °C	Yes	9 µM	100%	fully inhibits enzyme activity	7.6 ± 0.2 µM	1.8 ± 0.3 µM	0.19 µM									
N=C(N)Nc1nc(-c2ccccc2)c2ccccc2n1 [Glb08]		Yes			lower than 60%				positive outcomes and Yes	more than 60%	43 ± 2 µM	75 ± 3 µM	13 ± 4 µM	20 ± 5 µM	29 ± 3 µM	17 ± 6 µM	30 ± 1 µM
N=C(N)NN=Cc1cnn(Cc2ccccc2)c1 [Glb15]		Yes			lower than 60%				No	more than 60%	71 ± 2 µM	> 200 µM	14 ± 4 µM	14 ± 6 µM	12 ± 3 µM	13 ± 3 µM	36 ± 1 µM
Cc1cc(CSC(=N)N)c2oc(-c3ccccc3)cc(=O)c2c1 [Glb25]		Yes			lower than 60%				positive outcomes and Yes	more than 60%	> 200 µM	11 ± 1 µM	7 ± 3 µM	15 ± 9 µM	14 ± 3 µM	12 ± 2 µM	
